Experimental data taken from ChEMBL document CHEMBL4177750, “Imidazopyrazinones (IPYs): Non-Quinolone Bacterial Topoisomerase Inhibitors Showing Partial Cross-Resistance with Quinolones” (J Med Chem, 2018).
≈ marks a conversion by molar mass, not a printed value. Calls of active or inactive are those of the source. No cut-off for these calls is given here.

Experiments:
Cytochrome P450 3A4 [1] = target: T1, Cytochrome P450 3A4 (Homo sapiens, UniProt P08684); test: Inhibition of CYP3A4-mediated testosterone metabolism in human liver microsomes
T1 sequence (P08684 whole entry): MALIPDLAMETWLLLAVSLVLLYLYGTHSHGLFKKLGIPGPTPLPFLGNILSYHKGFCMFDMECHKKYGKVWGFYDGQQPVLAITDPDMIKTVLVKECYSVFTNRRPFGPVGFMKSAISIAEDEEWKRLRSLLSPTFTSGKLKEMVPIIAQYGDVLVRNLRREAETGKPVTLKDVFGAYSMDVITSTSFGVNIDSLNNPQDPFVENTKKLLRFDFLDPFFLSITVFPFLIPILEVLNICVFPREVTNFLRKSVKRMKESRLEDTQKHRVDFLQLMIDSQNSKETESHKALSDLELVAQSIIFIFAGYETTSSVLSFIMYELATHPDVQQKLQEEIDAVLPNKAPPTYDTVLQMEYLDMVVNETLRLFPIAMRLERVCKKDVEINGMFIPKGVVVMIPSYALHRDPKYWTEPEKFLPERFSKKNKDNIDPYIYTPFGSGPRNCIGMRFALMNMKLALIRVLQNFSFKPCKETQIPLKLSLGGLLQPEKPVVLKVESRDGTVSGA

Klebsiella pneumoniae [2] = test: Antibacterial activity against Klebsiella pneumoniae 1161486 after 20 to 22 hrs; format: functional
Staphylococcus aureus [3] = test: Antibacterial activity against Staphylococcus aureus RN4220 harboring ParC S80F/GyrA S84L double mutant after 20 to 22 hrs; format: functional
Staphylococcus aureus [4] = test: Resistance factor, ratio of MIC for Staphylococcus aureus RN4220 harboring ParC S80F mutant to MIC for wild type Staphylococcus aureus RN4220; format: functional
Staphylococcus aureus [5] = test: Antibacterial activity against Staphylococcus aureus RN4220 harboring GyrB D437N mutant after 20 to 22 hrs; format: functional
Staphylococcus aureus [6] = test: Antibacterial activity against methicillin-resistant Staphylococcus aureus ATCC 33592 after 20 to 22 hrs; format: functional
Klebsiella pneumoniae [7] = test: Resistance factor, ratio of MIC for Klebsiella pneumoniae 1161486 harboring GyrA S83F/D87V/ParC S80I triple mutant to MIC for wild type Klebsiella pneumoniae 1161486; format: functional
Staphylococcus aureus [8] = test: Antibacterial activity against methicillin-resistant Staphylococcus aureus ATCC 33592 after 20 to 22 hrs in presence of 50% calf fetal serum; format: functional, organism-based
Acinetobacter baumannii [9] = test: Antibacterial activity against Acinetobacter baumannii BM4454 after 20 to 22 hrs; format: functional
Staphylococcus aureus [10] = test: Antibacterial activity against Staphylococcus aureus RN4220 harboring GyrA D83N mutant after 20 to 22 hrs; format: functional
Staphylococcus aureus [11] = test: Resistance factor, ratio of MIC for Staphylococcus aureus RN4220 harboring GyrB D437N mutant to MIC for wild type Staphylococcus aureus RN4220; format: functional
Escherichia coli [12] = test: Antibacterial activity against tolC-deficient fluoroquinolones-sensitive Escherichia coli JC7623 clinical isolate harboring wild type DNA gyrase after 20 to 22 hrs
Cytochrome P450 3A4 [13] = target: T1, Cytochrome P450 3A4; test: Inhibition of CYP3A4-mediated midazolam metabolism in human liver microsomes
Acinetobacter baumannii [14] = test: Antibacterial activity against Acinetobacter baumannii BM4652 harboring adeABC/adeIJK deletion mutant after 20 to 22 hrs; format: functional
Escherichia coli [15] = test: Antibacterial activity against tolC-deficient fluoroquinolones-resistant Escherichia coli W4753 clinical isolate harboring DNA gyrase S83L/D87N/ParC S80I/ParE S458A mutant after 20 to 22 hrs
Escherichia coli [16] = test: Antibacterial activity against tolC-deficient Escherichia coli K-12 MG1655 after 20 to 22 hrs; format: functional; settings: K-12 substr. MG1655
Klebsiella pneumoniae [17] = test: Antibacterial activity against Klebsiella pneumoniae 1161486 harboring GyrA S83I/ParC S80I double mutant after 20 to 22 hrs; format: functional
[18] = Drug metabolism in mouse liver microsomes at 5 uM after 20 mins in presence of NADPH; format: ADME, microsome; settings: read-out: Drug metabolism
L5178Y [19] = test: Genotoxicity in mouse L5178Y cells after 23 hrs in absence of S9 fraction by micronucleus test; format: toxicity, cell-based
[20] = target: Voltage-gated inwardly rectifying potassium channel KCNH2 (Homo sapiens, UniProt Q12809); test: Inhibition of human ERG transfected in CHO cells by patch clamp method
Chain of Voltage-gated inwardly rectifying potassium channel KCNH2 (Q12809 whole entry): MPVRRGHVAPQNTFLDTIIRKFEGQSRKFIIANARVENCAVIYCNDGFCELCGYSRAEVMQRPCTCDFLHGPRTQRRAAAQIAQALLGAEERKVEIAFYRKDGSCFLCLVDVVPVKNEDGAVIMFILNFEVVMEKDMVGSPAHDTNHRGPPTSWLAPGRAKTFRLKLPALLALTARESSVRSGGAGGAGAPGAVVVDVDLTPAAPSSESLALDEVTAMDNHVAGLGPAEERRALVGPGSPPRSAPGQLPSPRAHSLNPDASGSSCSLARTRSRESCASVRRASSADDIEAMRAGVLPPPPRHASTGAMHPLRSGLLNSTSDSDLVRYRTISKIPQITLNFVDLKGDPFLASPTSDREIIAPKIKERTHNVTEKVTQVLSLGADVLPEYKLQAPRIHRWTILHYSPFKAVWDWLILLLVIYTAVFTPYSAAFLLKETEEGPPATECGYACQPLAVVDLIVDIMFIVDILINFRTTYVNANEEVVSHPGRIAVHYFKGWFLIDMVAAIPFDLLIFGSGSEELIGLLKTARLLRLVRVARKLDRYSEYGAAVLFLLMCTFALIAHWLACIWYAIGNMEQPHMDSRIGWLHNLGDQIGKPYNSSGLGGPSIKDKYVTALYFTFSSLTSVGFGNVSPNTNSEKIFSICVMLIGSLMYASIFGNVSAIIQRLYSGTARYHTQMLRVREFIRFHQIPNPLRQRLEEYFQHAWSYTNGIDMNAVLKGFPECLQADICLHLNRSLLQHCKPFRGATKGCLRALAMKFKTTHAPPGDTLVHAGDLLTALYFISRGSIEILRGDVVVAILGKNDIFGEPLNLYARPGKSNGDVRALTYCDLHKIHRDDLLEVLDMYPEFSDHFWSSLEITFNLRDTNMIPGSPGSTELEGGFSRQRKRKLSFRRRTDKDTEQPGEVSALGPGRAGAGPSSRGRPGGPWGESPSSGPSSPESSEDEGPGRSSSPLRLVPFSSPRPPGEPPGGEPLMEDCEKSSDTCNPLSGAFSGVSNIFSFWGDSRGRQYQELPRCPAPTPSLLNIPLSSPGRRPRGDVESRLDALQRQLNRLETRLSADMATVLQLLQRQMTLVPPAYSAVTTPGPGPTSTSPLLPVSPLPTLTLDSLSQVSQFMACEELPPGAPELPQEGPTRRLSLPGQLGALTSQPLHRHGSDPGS

Staphylococcus aureus [21] = test: Antibacterial activity against Staphylococcus aureus RN4220 harboring GyrA D83N/ParC D79N double mutant after 20 to 22 hrs; format: functional
[22] = Metabolic stability in rat plasma at 1 uM after 4 hrs; format: ADME, cell-free; settings: read-out: Stability
DNA gyrase = DNA gyrase (Escherichia coli, UniProt P0AES4+P0AES6)
Description: Inhibition of Escherichia coli DNA gyrase A2B2 using relaxed pNO1 as substrate

Klebsiella pneumoniae [23] = test: Antibacterial activity against tolC-deficient Klebsiella pneumoniae 1161486a after 20 to 22 hrs; format: functional
Escherichia coli [24] = test: Resistance factor, ratio of MIC for 4 times MIC-treated tolC-deficient Escherichia coli ATCC 25922 harboring DR76_3503 Q47H mutant to MIC for tolC-deficient Escherichia coli ATCC 25922; format: functional
Staphylococcus aureus [25] = test: Resistance factor, ratio of MIC for Staphylococcus aureus RN4220 harboring GyrA D83N/ParC D79N double mutant to MIC for wild type Staphylococcus aureus RN4220; format: functional
L5178Y [26] = test: Genotoxicity in mouse L5178Y cells after 3 hrs in presence of S9 fraction by micronucleus test; format: toxicity, cell-based; settings: s9, 3 h
Staphylococcus aureus [27] = test: Antibacterial activity against methicillin-resistant Staphylococcus aureus ATCC 33592 after 20 to 22 hrs in presence of 50% mouse serum; format: functional, organism-based
Escherichia coli [28] = test: Resistance factor, ratio of MIC for 4 times MIC-treated tolC-deficient Escherichia coli ATCC 25922 to MIC for tolC-deficient Escherichia coli ATCC 25922; format: functional
Escherichia coli [29] = test: Resistance factor, ratio of MIC for Escherichia coli K-12 MG1655 harboring GyrA S83L/D87N/ParC S80I triple mutant to MIC for wild type Escherichia coli K-12 MG1655; format: functional, K-12 substr. MG1655
Staphylococcus aureus [30] = test: Resistance factor, ratio of MIC for Staphylococcus aureus RN4220 harboring GyrA D83N mutant to MIC for wild type Staphylococcus aureus RN4220; format: functional
Escherichia coli [31] = test: Antibacterial activity against Escherichia coli K-12 MG1655 harboring GyrA S83L/D87N/ParC S80I triple mutant after 20 to 22 hrs; format: functional; settings: K-12 substr. MG1655
Staphylococcus aureus [32] = test: Antibacterial activity against Staphylococcus aureus RN4220 harboring ParC S80F mutant after 20 to 22 hrs; format: functional
Pseudomonas aeruginosa [33] = test: Antibacterial activity against Pseudomonas aeruginosa PAO750 harboring mexAB-oprM/mexCD-oprJ/mexEF-oprN/mexXY/opmH/mexJK/pscC deletion mutant after 20 to 22 hrs; format: functional
[34] = Drug metabolism in human liver microsomes at 5 uM after 20 mins in presence of NADPH; format: ADME, microsome; settings: read-out: Drug metabolism
Escherichia coli [35] = test: Antibacterial activity against Escherichia coli K-12 MG1655 after 20 to 22 hrs; settings: K-12 substr. MG1655
[36] = Apparent permeability across human Caco2 cells; settings: Caco-2
Staphylococcus aureus [37] = test: Resistance factor, ratio of MIC for Staphylococcus aureus RN4220 harboring ParC S80F/GyrA S84L double mutant to MIC for wild type Staphylococcus aureus RN4220; format: functional
Staphylococcus aureus [38] = test: Antibacterial activity against wild type Staphylococcus aureus RN4220 after 20 to 22 hrs; format: functional
Klebsiella pneumoniae [39] = test: Antibacterial activity against Klebsiella pneumoniae 1161486 harboring GyrA S83I mutant after 20 to 22 hrs; format: functional
Klebsiella pneumoniae [40] = test: Resistance factor, ratio of MIC for Klebsiella pneumoniae 1161486 harboring GyrA S83I/ParC S80I double mutant to MIC for wild type Klebsiella pneumoniae 1161486; format: functional
[41] = Cytotoxicity against human HepG2 cells assessed as decrease in cell viability after 40 hrs by Celltiter Glo assay
[42] = Drug metabolism in rat liver microsomes at 5 uM after 20 mins in presence of NADPH; format: ADME, microsome; settings: read-out: Drug metabolism
Pseudomonas aeruginosa [43] = test: Antibacterial activity against Pseudomonas aeruginosa PAO1 after 20 to 22 hrs; format: functional
Klebsiella pneumoniae [44] = test: Antibacterial activity against Klebsiella pneumoniae 1161486 harboring GyrA S83F/D87V/ParC S80I triple mutant after 20 to 22 hrs; format: functional
Klebsiella pneumoniae [45] = test: Resistance factor, ratio of MIC for Klebsiella pneumoniae 1161486 harboring GyrA S83I mutant to MIC for wild type Klebsiella pneumoniae 1161486; format: functional
[46] = Thermodynamic aqueous solubility of the compound at pH 7.4; settings: aqueous solution
[47] = Metabolic stability in mouse plasma at 1 uM after 4 hrs; format: ADME, cell-free; settings: read-out: Stability
Escherichia coli [48] = test: Inhibition of DNA synthesis in tolC-deficient Escherichia coli K-12 MG1655 at MIC to 8 times MIC after 5 to 120 mins by [methyl-3H]-thymidine incorporation assay; format: functional, organism-based; settings: K-12 substr. MG1655
Klebsiella pneumoniae [49] = test: Antibacterial activity against wild type Klebsiella pneumoniae 1161486 after 20 to 22 hrs; format: functional
Escherichia coli [50] = test: Antibacterial activity against ESBL producing Escherichia coli ATCC 35218 after 20 to 22 hrs; format: functional
Escherichia coli [51] = test: Antibacterial activity against hyperpermeable Escherichia coli D22 harboring LpxC mutant after 20 to 22 hrs

N[C@H]1CCN(c2cc3c(cc2F)n2ccnc2c(=O)n3C2CC2)C1 showed an IC50 (Cytochrome P450 3A4 [1]) greater than 30 µM, an MIC (Klebsiella pneumoniae [2]) of 32 µg/mL (≈ 97.8 µM) and an MIC (Staphylococcus aureus [3]) of 16 µg/mL (≈ 48.9 µM). For the same molecule, the Ratio (Staphylococcus aureus [4]) was 2, the MIC (Staphylococcus aureus [5]) was 4 µg/mL (≈ 12.2 µM) and the MIC (Staphylococcus aureus [6]) was 8 µg/mL (≈ 24.4 µM). The Ratio (Klebsiella pneumoniae [7]) was 4, the Activity (Staphylococcus aureus [8]) was “Active” and the MIC (Acinetobacter baumannii [9]) was greater than 64 µg/mL. The MIC (Staphylococcus aureus [10]) was 4 µg/mL (≈ 12.2 µM), the Ratio (Staphylococcus aureus [11]) was 1 and the MIC (Escherichia coli [12]) was 0.125 µg/mL (≈ 0.382 µM). For the same molecule, the IC50 (Cytochrome P450 3A4 [13]) was greater than 30 µM, the MIC (Acinetobacter baumannii [14]) was 4 to 8 µg/mL (≈ 12.2 to 24.4 µM) and the MIC (Escherichia coli [15]) was 2 µg/mL (≈ 6.11 µM). For the same molecule, the MIC (Escherichia coli [16]) was less than 0.125 µg/mL, the MIC (Klebsiella pneumoniae [17]) was 128 µg/mL (≈ 391 µM) and the metabolised at 20 min, 5 µM [18] was 8%. The Activity (L5178Y [19]) was “Toxic”, the IC50 [20] was greater than 30 µM and the MIC (Staphylococcus aureus [21]) was 16 µg/mL (≈ 48.9 µM). The remaining at 4 h, 1 µM [22] was 80 to 120%, the IC50 (DNA gyrase) was 1.19 µM and the MIC (Klebsiella pneumoniae [23]) was 0.5 µg/mL (≈ 1.53 µM). For the same molecule, the Ratio (Escherichia coli [24]) was 32, the Ratio (Staphylococcus aureus [25]) was 4 and the Activity (L5178Y [26]) was “Toxic”. The Activity (Staphylococcus aureus [27]) was “Active”, the Ratio (Escherichia coli [28]) was 8 and the Ratio (Escherichia coli [29]) was 64. The Ratio (Staphylococcus aureus [30]) was 1, the MIC (Escherichia coli [31]) was 512 µg/mL (≈ 1560 µM) and the MIC (Staphylococcus aureus [32]) was 8 µg/mL (≈ 24.4 µM). It also gave an MIC (Pseudomonas aeruginosa [33]) of less than 0.125 µg/mL, a metabolised at 20 min, 5 µM [34] of 6% and an MIC (Escherichia coli [35]) of 8 µg/mL (≈ 24.4 µM). For the same molecule, the Papp [36] was 0.4 ×10⁻⁶ cm/s, the Ratio (Staphylococcus aureus [37]) was 4 and the MIC (Staphylococcus aureus [38]) was 4 µg/mL (≈ 12.2 µM). It also gave an MIC (Klebsiella pneumoniae [39]) of 64 µg/mL (≈ 196 µM), a Ratio (Klebsiella pneumoniae [40]) of 8 and a CC50 at 40 h [41] greater than 30 µM. It also gave a metabolised at 20 min, 5 µM [42] of 11%, an MIC (Pseudomonas aeruginosa [43]) of 32 µg/mL (≈ 97.8 µM) and an MIC (Klebsiella pneumoniae [44]) of 64 µg/mL (≈ 196 µM). For the same molecule, the Ratio (Klebsiella pneumoniae [45]) was 4, the solubility thermodynamic [46] was 1130 µg/mL (≈ 3460 µM) and the remaining at 4 h, 1 µM [47] was 80 to 120%. The inhibition (Escherichia coli [48]) was “Active”, the MIC (Klebsiella pneumoniae [49]) was 16 µg/mL (≈ 48.9 µM) and the MIC (Escherichia coli [50]) was 4 µg/mL (≈ 12.2 µM). It also gave an MIC (Escherichia coli [51]) of 2 µg/mL (≈ 6.11 µM).
